According to patent US5861476A, “Peptides and compounds that bind to the IL-1 receptor” (Affymax Technologies N.V., priority 1995, dated 1999):
Where no end group is shown, it is not given here.

Key:
[1] = molecular target: T1, IL-1 induced down-regulation of the epidermal growth factor (EGF) receptor in normal human dermal fibroblasts (NHDF) (Homo sapiens, UniProt P14778); test: Epidermal Growth Factor Receptor Down Regulation Assay; type: cell-based; details: 37° C., in the presence of IL-1α, 125I-labeled EGF binding, read-out: IC50 (approximate concentration which blocked 50% of the IL-1 induced down regulation of the EGF receptor)
T1 sequence (P14778 18-569): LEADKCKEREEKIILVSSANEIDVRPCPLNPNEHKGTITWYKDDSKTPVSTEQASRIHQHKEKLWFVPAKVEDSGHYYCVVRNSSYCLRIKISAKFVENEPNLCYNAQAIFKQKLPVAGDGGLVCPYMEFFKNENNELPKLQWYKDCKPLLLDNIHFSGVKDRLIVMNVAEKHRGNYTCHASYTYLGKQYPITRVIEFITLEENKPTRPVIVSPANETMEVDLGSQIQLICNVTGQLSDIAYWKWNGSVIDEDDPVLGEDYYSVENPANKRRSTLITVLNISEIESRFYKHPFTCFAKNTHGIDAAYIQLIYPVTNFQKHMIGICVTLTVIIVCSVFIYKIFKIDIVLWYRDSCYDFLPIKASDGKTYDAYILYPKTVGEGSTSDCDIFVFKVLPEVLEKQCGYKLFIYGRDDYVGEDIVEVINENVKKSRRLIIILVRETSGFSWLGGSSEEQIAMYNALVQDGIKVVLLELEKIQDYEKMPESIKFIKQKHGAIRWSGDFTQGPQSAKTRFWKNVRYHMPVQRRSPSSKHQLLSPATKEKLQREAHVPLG
Source text: The protocol set forth in Bird and Saklatvala (1989) J. Immunol. […] This assay examines the effect of the compounds of the invention on the IL-1 induced down-regulation of the epidermal growth factor (EGF) receptor as measured by the binding of ^125 I-labeled EGF to its receptor in normal human dermal fibroblasts (NHDF). […] The table below lists the approximate concentration of representative peptides of the invention which blocked 50% of the IL-1 induced down regulation of the EGF receptor. IC50 values are indicated symbolically by the symbols "-", "+", and "++". […] Those peptides which give IC50 values of less than or equal to 100 μM are given a "+", while those which give IC50 values of 500 nM or less are indicated with a "++". Those peptides which give IC50 values at or near the cutoff point for a particular symbol are indicated with a hybrid, e.g. "±". Those peptides for which IC50 values were not determined are listed as "N.D".

[2] = molecular target: T2, IL-1RtI (Homo sapiens, UniProt P14778); test: Inhibition of 125I-IL-1α binding to IL-1RtI (Example 3); details: inhibition of 125I-IL-1α binding to IL-1RtI; soluble peptide unless marked *
T2 construct: made in house; host or cells: recombinant host cells (one form soluble from baculovirus transformed host cells; another PIG-tailed and cleaved from the cell surface)
T2 sequence (P14778 18-336): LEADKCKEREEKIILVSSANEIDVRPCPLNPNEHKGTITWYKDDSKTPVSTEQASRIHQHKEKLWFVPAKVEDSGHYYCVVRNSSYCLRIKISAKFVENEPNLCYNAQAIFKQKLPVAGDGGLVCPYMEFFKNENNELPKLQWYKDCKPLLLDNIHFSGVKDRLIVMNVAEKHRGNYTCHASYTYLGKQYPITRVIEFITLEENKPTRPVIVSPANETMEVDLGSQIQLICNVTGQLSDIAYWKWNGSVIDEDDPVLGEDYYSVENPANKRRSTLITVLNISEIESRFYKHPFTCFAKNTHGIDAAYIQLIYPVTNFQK
In short: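 Competition with 90 pM 125I-IL-1α was run in duplicate for 2 h at 4 °C in HEPES-buffered RPMI with 1% BSA, pH 7.2-7.3, against either antibody-captured truncated receptor or cells with full-length IL-1RtI. Gamma counting of NaOH-detached material gave approximate IC50; high-affinity peptides used 24-well format.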

Substance | IC50 [1] [µM] | IC50 [2] [µM]
DGYDRWRQSGERYWQPYALPL | ≤ 0.5 | ≤ 0.5
ETPFTWEESNAYYWQPYALPL | ≤ 0.5 | ≤ 0.5
FEWTPGYWQPYALPLSD-NH2 [FEWTPGYWQPYALPLSD--NH2] | ≤ 0.5 | –
WRDSVYWQPYSVQPESA [WRDS VYWQPYSVQ PESA] | – | ≤ 100
WWQPYALPL [WWQPYALPL] | – | ≤ 100
YFQPYALGL [YFQPYALGL] | – | ≤ 100
YFQPYALPF [YFQPYALPF] | – | > 100
YIPFTWEESNAYYWQPYALPL | ≤ 0.5 | –
YWYQPYALGL [YWYQPYALGL] | – | ≤ 100
YWYQPYALPL [YWYQPYALPL] | – | ≤ 100
YYQPYALPL [YYQPYALPL] | – | ≤ 100
YYSWQPYALPL [YYSWQ PYALPL] | – | > 100
YYTWQQPYALPL [YYTWQQ PYALPL] | – | > 100
